According to patent publication US9381186B2, “Substituted chroman derivatives, medicaments and use in therapy” (MEI Pharma, Inc., priority 2004, dated 2016):
Read-outs that look alike come from different tables or passages of the source.

Key:
CP70 = experiment: MTT proliferation assay, ovarian CP70; assay type: cell-based
CCRF-CEM = experiment: MTT proliferation assay, leukaemia (ALL) CCRF-CEM; assay type: cell-based; details: Homo sapiens, Table 2.2
Protocol: (§1) An cultures were supplemented with 10% FCS (CSL, Australia), penicillin (100 U/ml), streptomycin ([…]), L-glutamine (2 mM) and sodium bicarbonate (1.2 g/L), and cultured at 37° C. in a humidified atmosphere of 5% CO2. All cell lines were purchased from ATCC (Maryland, USA) except where noted.
(§2) IC50 values were determined for each cell line. Cells were seeded in 96-well plates at an appropriate cell density as determined from growth kinetics analysis and cultured for 5 days in the absence and presence of the test compounds. Cell proliferation was assessed after the addition of 20 μl of 3-4,5 dimethylthiazol-2,5-diphenyl tetrazolium bromide (MTT, 2.5 mg/ml in PBS, Sigma) for 3-4 hrs at 37° C. according to manufacturer's instructions. IC50 values were calculated from semi-log plots of % of control proliferation on the y-axis against log dose on the x-axis.

PC3 = experiment: MTT proliferation assay, prostate PC3; assay type: cell-based; details: Homo sapiens, PC-3
Protocol: as §1, §2

NCI-H460 = experiment: MTT proliferation assay, NSC lung NCI-H460; assay type: cell-based; details: Homo sapiens; NSC Lung NCI-H460, Table 2.2
Protocol: as §1, §2

HPAC = experiment: MTT proliferation assay, pancreatic HPAC; assay type: cell-based; details: Homo sapiens, Table 2.2
[1] = tested on: murine macrophages (RAW 264.7) stimulated with LPS; experiment: Eicosanoid synthesis in LPS-stimulated RAW 264.7 macrophages; assay type: cell-based, mouse; details: test compound 10 μM, LPS 50 ng/ml, 16 hrs; negative = inhibition
Protocol: The mouse macrophage cell line RAW 264.7 was cultured in DMEM supplemented with foetal calf serum (FCS), 2 mM glutamine and 50 U/ml penicillin/streptomycin. Subconfluent cells were detached from the flask by gentle scraping and 24-well plates seeded at 5×10^5 cells per well and allowed to adhere for 1 hr. Cells were then treated either test compound at a concentration of 10 μM (in 0.025% DMSO) or vehicle alone, and incubated for 1 hr. LPS 50 ng/ml (LPS—Sigma-Aldrich) was then added. After incubation for 16 hrs, culture media was collected and stored at −80° C. for ecosanoid measurements using enzyme immunometric assays (PGE2 and TXB2—Cayman Chemical).

HTB-138 = experiment: MTT proliferation assay, glioma HTB-138; assay type: cell-based
Protocol: as §1, §2

MM200 = experiment: MTT proliferation assay, melanoma MM200; assay type: cell-based
MDA-MB-468 = experiment: MTT proliferation assay, breast MDA-MB-468; assay type: cell-based; details: Homo sapiens
HT-29 = experiment: MTT proliferation assay, colorectal HT-29; assay type: cell-based; details: Homo sapiens; Colorectal HT-29, Table 2.2; read-out: IC50
Protocol: as §1, §2

[2] = tested on: NFF (neonatal foreskin fibroblasts); experiment: Cytotoxicity (MTT proliferation assay) against neonatal foreskin fibroblasts; assay type: cell-based, Human
Protocol: (§3) The normal cell line NFF (neonatal foreskin fibroblasts) was a gift from Dr. Peter Parsons (Queensland Institute of Medical Research). RK (rabbit kidney) cells were obtained from Miller Whalley (Macquarie University). Both cell lines were cultured in RPMI supplemented with 10% FCS (CSL, Australia), penicillin (100 U/ml), streptomycin ([…]), L-glutamine (2 mM) and sodium bicarbonate (1.2 g/L), and cultured at 37° C. in a humidified atmosphere of 5% CO2
as §2

[3] = Oral pharmacokinetics in female BALB/c mice; assay type: in vivo, mouse; details: female, BALB/c, mouse, serum, 50 mg/kg; oral; read-out: t1/2
Protocol: Compound No. 1 labelled above was prepared as homogenous suspensions in 1% CMC (m:v, water). The formulation was delivered orally by gavage to female BALB/c mice at a dosage of 50 mg/kg. Three animals were allocated to each timepoint (15 min, 30 min, 1 hr, 4 hr and 24 hr). At each respective timepoint, animals were euthanised by cervical dislocation and blood collected. The concentration of free compound was analysed by mass spectroscopy.

RK (rabbit kidney) cells = experiment: Cytotoxicity (MTT proliferation assay) against rabbit kidney cells; assay type: cell-based; details: Oryctolagus cuniculus; rabbit kidney cells
Protocol: as §3, §2

NCI-H23 = experiment: MTT proliferation assay, lung NCI-H23; assay type: cell-based; details: Homo sapiens; Lung NCI-H23, Table 2.1; read-out: cytoxicity (IC50)
Protocol: as §1, §2

[4] = Ovarian CP70, Table 2.2, read-out: IC50
[5] = Prostate PC3, Table 2.2, read-out: IC50
[6] = Glioma HTB-138, Table 2.2, read-out: IC50
[7] = Melanoma MM200, Table 2.2, read-out: IC50
[8] = Breast MDA-MB-468, Table 2.2, read-out: IC50

Structure (SMILES) | IC50 (CP70; [4]) [µM] | IC50 (CCRF-CEM) [µM] | IC50 (PC3; [5]) [µM] | IC50 (NCI-H460) [µM] | IC50 (HPAC) [µM] | Percentage change in PGE2 synthesis compared with vehicle [1] [%] | Percentage change in TXB2 synthesis compared with vehicle [1] [%] | IC50 (HTB-138; [6]) [µM] | IC50 (MM200; [7]) [µM] | IC50 (MDA-MB-468; [8]) [µM] | IC50 (HT-29) [µM] | also measured
Cc1ccc(C2(O)c3ccc(O)cc3OCC2c2ccc(O)cc2)cc1 (stereo not shown) [Compound 10] | 27.5 | 40.7 | 37.5 ± 0.4 | 39.7 | 50 | −23.1 | −7.1 | 60.2 | – | – | – | –
Oc1ccc(C2COc3cc(O)ccc3C2(O)c2ccccc2)cc1 (stereo not shown) [Compound 14] | 61.3 | 90.2 | 74 ± 4 | > 100 | > 100 | −23.6 | −40.9 | > 100 | 72.8 | > 100 | – | –
COc1ccc(C2(O)c3ccc(O)cc3OCC2c2ccc(O)cc2)cc1 (stereo not shown) [Compound 11] | 52.7 ± 13 | 95.4 | > 100 | > 100 | > 100 | −51.0 | −53.2 | 86.3 | 60.4 ± 9.2 | – | – | –
COc1cccc(C2=C(c3ccc(O)cc3)COc3cc(O)ccc32)c1 [Compound 31] | 53.4 | 51.5 ± 12 | 47 ± 8.4 | 76.3 | 34.6 | −41.4 | −48.3 | 94.6 | 27.2 ± 4.6 | – | > 100 | –
COc1ccc(C2=C(c3ccc(OC)cc3)c3ccc(OC)cc3OC2)cc1 [Compound 28] | 62 ± 44 | > 100 | 49 ± 16 | 41.6 | 50.7 ± 35 | −85.1 | −50.1 | 62.4 | 64 ± 74 | 30.5 ± 4 | 29.4 ± 4.4 | –
N.N.[Cl][Pt][Cl] [Cisplatin, reference compound] | – | – | – | – | – | – | – | – | – | – | – | IC50 ([2]; non-transformed neonatal foreskin fibroblasts, read-out: IC50): 9 µM; IC50 ([2]; text says rabbit kidney cells, values are those of the NFF line of Table 1, read-out: degree of toxicity (IC50)): 9.9 µM
COc1cccc(C2(O)c3ccc(O)cc3OCC2c2ccc(O)cc2)c1 (stereo not shown) [Compound 15] | 65 ± 1.9 | 81.8 | > 100 | > 100 | > 100 | −38.3 | −58.4 | > 100 | – | – | – | –
COc1ccc(C2COc3cc(OC)ccc3C2(O)c2ccc(OC)cc2)cc1 (stereo not shown) [Compound 12] | > 100 | > 100 | 32.8 ± 4.7 | – | 86.3 ± 67 | −68.3 | −34.0 | 47.7 | > 100 | 63.5 ± 4.6 | 49.5 ± 32 | –
COc1ccc(C2=C(c3ccc(O)cc3)COc3cc(O)ccc32)cc1 [Compound 27] | 22.4 ± 0.7 | 16.6 | 28 ± 7.3 | 31.6 ± 4.9 | 27.6 ± 5.3 | −84.2 | −86.1 | 33.7 | 14.6 | – | – | –
Oc1ccc(C2=C(c3ccccc3)c3ccc(O)cc3OC2)cc1 [Compound 30] | 18 | 66.6 | 45 ± 4.9 | 43.5 ± 9.2 | 41 ± 5.3 | −60.7 | −62.6 | 45.7 | 33 ± 3 | > 100 | – | –
COc1ccc(C2=C(c3ccc(O)cc3)COc3c2ccc(O)c3C)cc1 [Compound 32] | 17.7 ± 5.9 | 15.4 | 13 ± 0.6 | 39.3 ± 7.7 | 35.8 | −71.1 | −34.4 | 29 ± 2 | 12.6 ± 3.7 | 9.2 ± 5.1 | 24.8 ± 3.9 | –
Oc1ccc(C2=Cc3ccc(O)cc3OC2)cc1 [Phenoxodiol, reference compound] | – | – | – | – | – | – | – | – | – | – | – | half-life [3]: ~30 min; IC50 (CP70; read-out: cytoxicity (IC50)): 11.1 ± 23.6 µM; IC50 (PC3; Prostate PC3, Table 2.1, read-out: cytoxicity (IC50)): 9.1 ± 8 µM; IC50 (RK (rabbit kidney) cells): > 150 µM; IC50 (MM200; read-out: cytoxicity (IC50)): 6.2 ± 4.5 µM; IC50 (NCI-H23): 8.3 ± 6.7 µM; IC50 (HTB-138; Glioma HTB-138, Table 2.1, read-out: cytoxicity (IC50)): 20.4 ± 17.5 µM; IC50 (MDA-MB-468; MDA-MB-468, read-out: cytoxicity (IC50)): 8.9 ± 4.8 µM
